Source: PubChem BioAssay AID652111 (The Scripps Research Institute Molecular Screening Center, 2013)
Activity calls are given as the source filed them.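 Rule for the calls: active = IC50 below 50 µM against PP5; inactive = the rest.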

Biological target: Serine/threonine-protein phosphatase 5 (Homo sapiens) (UniProt P53041)
Assay: human PP5 catalytic domain inhibitor potency – biochemical, radiolabel, glycogen phosphorylase substrate, powder samples, selectivity assay for PP1 inhibitor project, late-stage follow-up (AID 652111)
Conditions: recombinant PP5c, 32P/33P phosphorylase dephosphorylation, scintillation

Chain of Serine/threonine-protein phosphatase 5 (Homo sapiens) (P53041 whole entry, looked up, the tested form may be a part): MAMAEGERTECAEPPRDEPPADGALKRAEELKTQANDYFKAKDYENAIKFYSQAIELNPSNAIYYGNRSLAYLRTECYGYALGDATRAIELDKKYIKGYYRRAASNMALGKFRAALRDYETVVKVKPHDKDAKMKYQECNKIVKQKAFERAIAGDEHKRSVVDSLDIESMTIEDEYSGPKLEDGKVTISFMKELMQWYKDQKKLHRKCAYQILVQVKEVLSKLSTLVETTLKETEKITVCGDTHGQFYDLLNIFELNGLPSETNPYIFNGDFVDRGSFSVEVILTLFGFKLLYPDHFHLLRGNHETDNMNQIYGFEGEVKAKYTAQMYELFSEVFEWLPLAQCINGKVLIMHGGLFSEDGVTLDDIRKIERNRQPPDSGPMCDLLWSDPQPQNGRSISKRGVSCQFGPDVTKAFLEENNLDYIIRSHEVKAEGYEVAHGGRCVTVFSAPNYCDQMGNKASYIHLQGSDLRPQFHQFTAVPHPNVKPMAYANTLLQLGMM

Structure (SMILES)	IC50
COc1ccc(NC(=O)C2C3CCC(O3)C2C(=O)O)c(OC)c1 (stereo not given)	4.16 µM
CN1CCN(C(c2ccccn2)c2cc(Cl)c3cccnc3c2O)CC1 (stereo not given)	> 50 µM (inactive)
CCn1c2ccccc2c2cc(NC(=O)COC(=O)c3ccc(NC(=O)CC#N)cc3)ccc21	> 50 µM (inactive)
CCOC(=O)c1sc2nc3c(SCC(=O)O)cc(C(=O)c4cc(F)ccc4O)cn3c(=O)c2c1C	< 50 µM
N#Cc1c(-c2ccc(Cl)cc2)cc(-c2cccs2)nc1SCC(=O)O	< 50 µM
